Test results as given in ChEMBL document CHEMBL4359836, “Synthesis and Biological Assessment of Pyrrolobenzoxazine Scaffold as a Potent Antioxidant” (J Med Chem, 2019).
The source made the active and inactive calls. The rule behind the calls is not given here.

Columns and labels:
[1] = Inhibition of PDH in goat cardiac mitochondria assessed as effect on Vmax at 66 uM using sodium pyruvate as substrate after 1 hr by Lineweaver-Burk double reciprocal plot analysis; parameters: species or system Capra hircus, Heart
[2] = Binding affinity to Cu2+ assessed as binding constant K4 at 66 uM in presence of CuCl2 by isothermal titration calorimetry
[3] = Binding affinity to Cu2+/ascorbate assessed as decrease in heat change at 66 uM in presence of ascorbic acid/CuCl2 by isothermal titration calorimetry
[4] = organism: Capra hircus; test: Effect on succinate dehydrogenase in goat cardiac mitochondria assessed as reversal of CuCl2/ascorbic acid induced reduction in Vmax at 66 uM using succinate as substrate after 1 hr by Lineweaver-Burk double reciprocal plot analysis; settings: Heart
[5] = tested on: Mitochondria; test: Antioxidant activity in goat cardiac mitochondria assessed as inhibition of CuCl2/ascorbic acid-induced manganese superoxide dismutase at 16.5 uM after 1 hr by pyrogallol autoxidation method relative to control; format: functional, subcellular; settings: Capra hircus, Heart, Mitochrondria
[6] = tested on: Mitochondria; test: Antioxidant activity in goat cardiac mitochondria assessed as inhibition of CuCl2/ascorbic acid-induced protein carbonyl content at 33 uM after 1 hr by DNPH assay relative to control; format: functional, subcellular; settings: Capra hircus, Heart, Mitochrondria
[7] = tested on: Mitochondria; test: Protective activity against CuCl2/ascorbic acid-induced apoptotic alteration in goat cardiac mitochondria assessed as reversal of CuCl2/ascorbic acid-induced reduction in cytochrome c oxidase activity incubated for 1 hr and measured at 10 secs time interval for 90 secs by spectrophotometric analysis; format: functional, subcellular; settings: Capra hircus; Heart; Mitochrondria
[8] = Antioxidant activity in pH 7.4 potassium phosphate buffer assessed as CuCl2/ascorbic acid induced hydroxyl radical scavenging activity by measuring deoxyribose degradation product formation after 20 mins by thiobarbituric acid based absorbance analysis; format: functional
[9] = tested on: Mitochondria; test: Antioxidant activity in goat cardiac mitochondria assessed as reversal of CuCl2/ascorbic acid-induced reduction in PDH level at 16.5 uM using sodium pyruvate as substrate after 1 hr spectrophotometric analysis (reference value: 66.25%); format: functional, subcellular; parameters: scale not given: the % may be the effect or the level left; settings: Capra hircus, Heart, Mitochrondria
[10] = tested on: Mitochondria; test: Antioxidant activity in goat cardiac mitochondria assessed as inhibition of CuCl2/ascorbic acid-induced manganese superoxide dismutase at 66 uM after 1 hr by pyrogallol autoxidation method relative to control; format: functional, subcellular; settings: Capra hircus, Heart, Mitochrondria
[11] = tested on: Mitochondria; test: (§1) Protective activity against CuCl2/ascorbic acid-induced apoptotic alteration in goat cardiac mitochondria assessed as reversal of CuCl2/ascorbic acid-induced reduction in cytochrome c oxidoreductase activity at 16.5 uM incubated for 1 hr and measured at 10 secs time interval for 90 secs by spectrophotometric analysis (reference value: 47.82%); format: functional, subcellular; parameters: scale not given: the % may be the effect or the level left; settings: Capra hircus, Heart, Mitochrondria
[12] = organism: Capra hircus; test: Effect on succinate dehydrogenase in goat cardiac mitochondria assessed as reversal of CuCl2/ascorbic acid induced reduction in Km at 66 uM using succinate as substrate after 1 hr by Lineweaver-Burk double reciprocal plot analysis; settings: Heart
[13] = tested on: Mitochondria; test: Antioxidant activity in goat cardiac mitochondria assessed as reversal of CuCl2/ascorbic acid-induced reduction in SDH level at 8.25 uM using succinate as substrate after 1 hr by spectrophotometric analysis (reference value: 71.51%); format: functional, subcellular; parameters: scale not given: the % may be the effect or the level left; settings: Capra hircus, Heart, Mitochrondria
[14] = tested on: Mitochondria; test: Antioxidant activity in goat cardiac mitochondria assessed as reversal of CuCl2/ascorbic acid-induced reduction in ICDH level at 16.5 uM using isocitrate as substrate after 1 hr (reference value: 65.58%); format: functional, subcellular; parameters: scale not given: the % may be the effect or the level left; settings: Capra hircus, Heart, Mitochrondria
[15] = tested on: Mitochondria; test: Antioxidant activity in goat cardiac mitochondria assessed as reversal of CuCl2/ascorbic acid-induced reduction in PDH level at 66 uM using sodium pyruvate as substrate after 1 hr by spectrophotometric analysis relative to control; format: functional, subcellular; settings: Capra hircus, Heart, Mitochrondria
[16] = Effect on alpha-KGDH levels in goat cardiac mitochondria at 8.25 to 66 uM using alpha-ketoglutarate as substrate after 1 hr; format: ADME, subcellular, Capra hircus, Heart, Mitochrondria
[17] = tested on: Mitochondria; test: Antioxidant activity in goat cardiac mitochondria assessed as inhibition of CuCl2/ascorbic acid-induced manganese superoxide dismutase at 33 uM after 1 hr by pyrogallol autoxidation method relative to control; format: functional, subcellular; settings: Capra hircus, Heart, Mitochrondria
[18] = tested on: Mitochondria; test: Antioxidant activity in goat cardiac mitochondria assessed as reversal of CuCl2/ascorbic acid-induced reduction in alpha-KGDH level at 16.5 uM using alpha-ketoglutarate as substrate after 1 hr (reference value: 69.78%); format: functional, subcellular; parameters: scale not given: the % may be the effect or the level left; settings: Capra hircus, Heart, Mitochrondria
[19] = Effect on SDH levels in goat cardiac mitochondria at 8.25 to 66 uM using succinate as substrate after 1 hr by spectrophotometric analysis; format: ADME, subcellular, Capra hircus, Heart, Mitochrondria
[20] = Inhibition of alpha-ketoglutarate dehydrogenase in goat cardiac mitochondria assessed as effect on Vmax at 66 uM using alpha-ketoglutarate as substrate after 1 hr by Lineweaver-Burk double reciprocal plot analysis; parameters: species or system Capra hircus, Heart
[21] = tested on: Mitochondria; test: Antioxidant activity in goat cardiac mitochondria assessed as inhibition of CuCl2/ascorbic acid-induced manganese superoxide dismutase after 1 hr by pyrogallol autoxidation method; format: functional, subcellular; settings: Capra hircus; Heart; Mitochrondria
[22] = Induction of structural distortion in goat cardiac mitochondria at 66 uM after 1 hr by scanning electron microscopy; format: subcellular, Capra hircus, Heart, Mitochrondria
[23] = tested on: Mitochondria; test: Antioxidant activity in goat cardiac mitochondria assessed as inhibition of CuCl2/ascorbic acid-induced lipid peroxidation at 66 uM after 1 hr by thiobarbituric acid based UV-Visible spectrophotometric method (reference value: 60.11%); format: functional, subcellular; settings: Capra hircus, Heart, Mitochrondria
[24] = tested on: Mitochondria; test: Protection against CuCl2/ascorbic acid-induced depolarization of goat cardiac mitochondria at 66 uM after 60 mins by calcein AM dye-based flow cytometric analysis; format: functional, subcellular; settings: Capra hircus, Heart, Mitochrondria
[25] = Binding affinity to Cu2+ assessed as binding constant K1 at 66 uM in presence of CuCl2 by isothermal titration calorimetry
[26] = Binding affinity to ascorbate at 66 uM in presence of ascorbic acid by isothermal titration calorimetry
[27] = tested on: Mitochondria; test: as §1, with “33” for “16.5”, “uM” for “uM incubated for 1 hr and”; format: functional, subcellular; parameters: scale not given: the % may be the effect or the level left; settings: Capra hircus, Heart, Mitochrondria
[28] = Binding affinity to Cu2+ assessed as binding constant K3 at 66 uM in presence of CuCl2 by isothermal titration calorimetry
[29] = Effect on cytochrome c oxidase activity in goat cardiac mitochondria at 8.25 to 66 uM incubated for 1 hr and measured at 10 secs time interval for 90 secs by spectrophotometric analysis; format: ADME, subcellular, Capra hircus, Heart, Mitochrondria
[30] = tested on: Mitochondria; test: Antioxidant activity in goat cardiac mitochondria assessed as reversal of CuCl2/ascorbic acid-induced reduction in GSH level after 1 hr by DTNB reagent based method; format: functional, subcellular; settings: Capra hircus; Heart; Mitochrondria
[31] = Antioxidant activity in pH 7.4 phosphate buffer assessed as DPPH radical scavenging activity at 64 uM after 30 mins by spectrophotometric analysis (reference value: 0.811 +/- 0.02%); format: functional
[32] = tested on: Mitochondria; test: Protective activity in goat cardiac mitochondria assessed as inhibition of CuCl2/ascorbic acid-induced perforated surface at 66 uM incubated for 1 hr by scanning electron microscopy; format: functional, subcellular; settings: Capra hircus, Heart, Mitochrondria
[33] = Effect on GSH level in goat cardiac mitochondria at 8.25 to 66 uM after 1 hr by DTNB reagent based method; format: ADME, subcellular, Capra hircus, Heart, Mitochrondria
[34] = tested on: Mitochondria; test: Antioxidant activity in goat cardiac mitochondria assessed as reversal of CuCl2/ascorbic acid-induced reduction in GSH level at 33 uM after 1 hr by DTNB reagent based method relative to control; format: functional, subcellular; settings: Capra hircus, Heart, Mitochrondria
[35] = tested on: Mitochondria; test: Antioxidant activity in goat cardiac mitochondria assessed as reversal of CuCl2/ascorbic acid-induced reduction in GSH level at 8.25 uM after 1 hr by DTNB reagent based method (reference value: 75.89%); format: functional, subcellular; parameters: scale not given: the % may be the effect or the level left; settings: Capra hircus, Heart, Mitochrondria

inhibition (INH) [1]: Not Active | K [2]: 9 ×10⁴ /M | Activity [3]: Active | Activity [4]: Active | Activity [7]: Dose-dependent effect | IC50 [8]: 11 µM | Activity [11]: 35.2% | Activity [12]: Active | inhibition (INH) [20]: Not Active | K [25]: 8.37 ×10⁴ /M | K [26]: 4.6 ×10³ /M | Activity [27]: 49.8% | K [28]: 1.04 ×10⁵ /M
SMILES: CCOC(=O)c1c(-c2ccc(O)c(OC)c2)cn2c1c(=O)oc1ccccc12
inhibition [5]: 34.1% | inhibition [6]: 64.8% | Activity [8]: Dose-dependent effect | MEC [8]: 66 µM | Activity [9]: 94.5% | inhibition [10]: 60.9% | Activity [13]: 51.7% | Activity [14]: 75.5% | fold change (FC) [15]: 3.82 | Activity [16]: Non-Toxic | inhibition [17]: 41.6% | Activity [18]: 85.4% | Activity [19]: Non-Toxic | Activity [21]: Dose-dependent effect | Activity [22]: Non-Toxic | inhibition [23]: 36.4% | Activity [24]: Active | Activity [29]: Non-Toxic | Activity [30]: Dose-dependent effect | Activity [31]: 82.3% | Activity [32]: Active | Activity [33]: Non-Toxic | fold change (FC) [34]: 4.66 | Activity [35]: 79.6%
